Test results taken from US20230102554A1 (GB002, INC., priority 2019, published 2023).

What was measured:
[1] = target: T1, Human PDGFRβ, cytoplasmic domain (GST-PDGFRβ) (Homo sapiens, UniProt P09619); experiment: Human PDGFRβ biochemical inhibition assay (off-chip Mobility Shift Assay)
T1 construct: made in house
In short: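 GST-tagged cytoplasmic domain (aa 557-1106) from baculovirus was incubated 1 h at room temperature with compound, CSKtide, ATP at Km and Mg²⁺ in HEPES buffer, pH 7.5. Phosphorylated and unphosphorylated peptide were separated by off-chip mobility shift, and the product ratio P/(P+S) gave percent inhibition.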

[2] = target: T2, Human PDGFRα, cytoplasmic domain (GST-PDGFRα) (Homo sapiens, UniProt P16234); experiment: Human PDGFRα biochemical inhibition assay (off-chip Mobility Shift Assay)
T2 construct: made in house
T2 sequence (P16234 550-1089 T674I): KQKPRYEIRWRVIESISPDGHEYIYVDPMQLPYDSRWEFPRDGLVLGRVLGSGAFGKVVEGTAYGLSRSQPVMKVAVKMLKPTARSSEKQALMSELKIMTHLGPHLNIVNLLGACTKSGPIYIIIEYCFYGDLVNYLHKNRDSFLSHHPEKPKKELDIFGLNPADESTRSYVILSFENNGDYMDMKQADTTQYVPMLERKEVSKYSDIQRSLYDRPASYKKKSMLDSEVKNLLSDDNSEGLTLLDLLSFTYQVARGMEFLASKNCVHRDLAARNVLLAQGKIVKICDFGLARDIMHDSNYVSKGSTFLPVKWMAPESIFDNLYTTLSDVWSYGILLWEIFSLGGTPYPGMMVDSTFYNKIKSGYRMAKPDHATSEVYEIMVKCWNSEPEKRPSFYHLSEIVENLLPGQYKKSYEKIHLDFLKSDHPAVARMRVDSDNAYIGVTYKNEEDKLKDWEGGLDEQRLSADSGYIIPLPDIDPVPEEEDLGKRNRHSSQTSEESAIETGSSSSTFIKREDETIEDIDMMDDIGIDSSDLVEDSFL

T1 sequence (P09619 with tags, fused parts or gaps): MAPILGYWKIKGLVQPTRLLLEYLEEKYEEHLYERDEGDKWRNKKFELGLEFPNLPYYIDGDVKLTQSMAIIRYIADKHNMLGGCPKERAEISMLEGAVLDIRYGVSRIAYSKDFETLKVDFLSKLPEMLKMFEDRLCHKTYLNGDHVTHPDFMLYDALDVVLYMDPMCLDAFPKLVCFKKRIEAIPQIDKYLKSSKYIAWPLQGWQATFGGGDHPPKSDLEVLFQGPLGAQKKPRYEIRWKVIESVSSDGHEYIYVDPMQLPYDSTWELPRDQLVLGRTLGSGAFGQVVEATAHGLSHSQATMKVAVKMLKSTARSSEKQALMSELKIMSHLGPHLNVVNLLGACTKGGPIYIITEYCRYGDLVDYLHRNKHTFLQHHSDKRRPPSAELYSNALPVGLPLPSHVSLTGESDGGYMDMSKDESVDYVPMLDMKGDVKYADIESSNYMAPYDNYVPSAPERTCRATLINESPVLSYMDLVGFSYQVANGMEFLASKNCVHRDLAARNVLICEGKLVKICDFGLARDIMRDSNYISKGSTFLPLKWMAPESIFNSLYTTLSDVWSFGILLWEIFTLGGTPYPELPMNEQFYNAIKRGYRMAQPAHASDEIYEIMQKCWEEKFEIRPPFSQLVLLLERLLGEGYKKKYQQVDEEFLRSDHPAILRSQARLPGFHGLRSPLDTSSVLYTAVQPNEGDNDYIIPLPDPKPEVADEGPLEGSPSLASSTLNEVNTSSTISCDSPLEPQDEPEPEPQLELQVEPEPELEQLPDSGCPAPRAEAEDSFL

Structure (SMILES) | IC50 [1] [µM] | IC50 [2] [µM]
CCn1cc2ncc(N[C@@H](C)c3cccc(NC(=O)c4ccc(N5CCCC5)c(Cl)c4)c3)nc2n1 [Compound 389, (S)-3-chloro-N-(3-(1-((2-ethyl-2H-pyrazolo[3,4-b]pyrazin-6-yl)amino)ethyl)phenyl)-4-(pyrrolidin-1-yl)benzamide] | < 0.3 | < 0.3
C[C@H](Nc1cnc2cnn(C)c2n1)c1cccc(NC(=O)C2CC2C(F)(F)F)c1 (stereo partly drawn) [Compound 52, N-(3-((S)-1-((1-methyl-1H-pyrazolo[3,4-b]pyrazin-6-yl)amino)ethyl)phenyl)-2-(trifluoromethyl)cyclopropane-1-carboxamide] | ≥ 1 | 0.3 to 1
CCn1cc2ncc(N[C@@H](C)c3cccc(NC(=O)c4ccc(CN5CC(F)C5)c(C)c4)c3)nc2n1 [Compound 497, (S)-N-(3-(1-((2-ethyl-2H-pyrazolo[3,4-b]pyrazin-6-yl)amino)ethyl)phenyl)-4-((3-fluoroazetidin-1-yl)methyl)-3-methylbenzamide] | < 0.3 | < 0.3
CCn1cc2ncc(N[C@@H](C)c3cc(NC(=O)c4ccc(C(F)(F)F)nc4)ccc3C)nc2n1 [Compound 455, (S)-N-(3-(1-((2-ethyl-2H-pyrazolo[3,4-b]pyrazin-6-yl)amino)ethyl)-4-methylphenyl)-6-(trifluoromethyl)nicotinamide] | < 0.3 | < 0.3
CCn1cc2ncc(N[C@@H](C)c3cc(NC(=O)Cc4ccc5c(n4)OCCC5)ccc3C)nc2n1 [Compound 721, (S)-2-(3,4-dihydro-2H-pyrano[2,3-b]pyridin-7-yl)N-(3-(1-((2-ethyl-2H-pyrazolo[3,4-b]pyrazin-6-yl)amino)ethyl)-4-methylphenyl)acetamide] | ≥ 1 | < 0.3
CCn1cc2ncc(N[C@@H](C)c3cc(NC(=O)Cc4ccc(C(F)(F)F)cn4)ccc3C)nc2n1 [Compound 661, (S)-N-(3-(1-((2-ethyl-2H-pyrazolo[3,4-b]pyrazin-6-yl)amino)ethyl)-4-methylphenyl)-2-(5-(trifluoromethyl)pyridin-2-yl)acetamide] | 0.3 to 1 | < 0.3
CCn1cc2ncc(N[C@@H](C)c3cccc(NC(=O)Cc4ccccn4)c3)nc2n1 [Compound 645, (S)-N-(3-(1-((2-ethyl-2H-pyrazolo[3,4-b]pyrazin-6-yl)amino)ethyl)phenyl)-2-(pyridin-2-yl)acetamide] | ≥ 1 | 0.3 to 1
C[C@H](Nc1cnc2cnn(C)c2n1)c1cccc(NC(=O)c2cnn(C)c2)c1 [Compound 146, (S)-1-methyl-N-(3-(1-((1-methyl-1H-pyrazolo[3,4-b]pyrazin-6-yl)amino)ethyl)phenyl)-1H-pyrazole-4-carboxamide] | ≥ 1 | 0.3 to 1
CCn1cc2ncc(N[C@@H](C)c3cccc(NC(=O)Cc4cccc(C(F)(F)F)c4)c3)nc2n1 [Compound 630, (S)-N-(3-(1-((2-ethyl-2H-pyrazolo[3,4-b]pyrazin-6-yl)amino)ethyl)phenyl)-2-(3-(trifluoromethyl)phenyl) acetamide] | 0.3 to 1 | < 0.3
C[C@H](Nc1cnc2cnn(C)c2n1)c1cccc(NC(=O)c2cncc(CO)c2)c1 [Compound 106, (S)-5-(hydroxymethyl)-N-(3-(1-((1-methyl-1H-pyrazolo[3,4-b]pyrazin-6-yl)amino)ethyl)phenyl)nicotinamide] | 0.3 to 1 | < 0.3
CCn1cc2ncc(N[C@@H](C)c3cccc(NC(=O)c4cnc(N5CCCC5)s4)c3)nc2n1 [Compound 326, (S)-N-(3-(1-((2-ethyl-2H-pyrazolo[3,4-b]pyrazin-6-yl)amino)ethyl)phenyl)-2-(pyrrolidin-1-yl)thiazole-5-carboxamide] | < 0.3 | < 0.3
CCn1cc2ncc(N[C@@H](C)c3cccc(NC(=O)c4ccc(CN5CCC6(COC6)C5)c(C)c4)c3)nc2n1 [Compound 460, (S)-4-((2-oxa-6-azaspiro[3.4]octan-6-yl)methyl)-N-(3-(1-((2-ethyl-2H-pyrazolo[3,4-b]pyrazin-6-yl)amino)ethyl)phenyl)-3-methylbenzamide] | < 0.3 | < 0.3
CCn1cc2ncc(N[C@@H](C)c3cc(NC(=O)Cc4cnc(C)c(F)c4)ccc3C)nc2n1 [Compound 707, (S)-N-(3-(1-((2-ethyl-2H-pyrazolo[3,4-b]pyrazin-6-yl)amino)ethyl)-4-methylphenyl)-2-(5-fluoro-6-methylpyridin-3-yl)acetamide] | 0.3 to 1 | < 0.3
CCn1ccc2ncc(N[C@@H](C)c3cccc(NC(=O)c4cncc(C)c4)c3)nc21 [Compound 82, (S)-N-(3-(1-((5-ethyl-5H-pyrrolo[2,3-b]pyrazin-3-yl)amino)ethyl)phenyl)-5-methylnicotinamide] | 0.3 to 1 | < 0.3

The next lines start with the values.

IC50 [1] [µM] | IC50 [2] [µM] | Structure (SMILES)
< 0.3 | < 0.3 | C[C@H](Nc1cnc2cnn(C)c2n1)c1cccc(NC(=O)c2cncc(C3COC3)c2)c1 [Compound 114, (S)-N-(3-(1-((1-methyl-1H-pyrazolo[3,4-b]pyrazin-6-yl)amino)ethyl)phenyl)-5-(oxetan-3-yl)nicotinamide]
0.3 to 1 | < 0.3 | CCn1cc2ncc(N[C@@H](C)c3cccc(NC(=O)c4cnc(C)c(F)c4)c3)nc2n1 [Compound 419, (S)-N-(3-(1-((2-ethyl-2H-pyrazolo[3,4-b]pyrazin-6-yl)amino)ethyl)phenyl)-5-fluoro-6-methylnicotinamide]
< 0.3 | < 0.3 | CCc1ncc(C(=O)Nc2cccc([C@H](C)Nc3cnc4cnn(C)c4n3)c2)cc1C [Compound 233, (S)-6-ethyl-5-methyl-N-(3-(1-((1-methyl-1H-pyrazolo[3,4-b]pyrazin-6-yl)amino)ethyl)phenyl)nicotinamide]
< 0.3 | < 0.3 | Cc1c[nH]c2ncc(N[C@@H](C)c3cccc(NC(=O)c4cnn(CCF)c4)c3)nc12 [Compound 575, (S)-1-(2-fluoroethyl)-N-(3-(1-((7-methyl-5H-pyrrolo[2,3-b]pyrazin-2-yl)amino)ethyl)phenyl)-1H-pyrazole-4-carboxamide]
< 0.3 | < 0.3 | CCNc1ncc(C(=O)Nc2ccc(C)c([C@H](C)Nc3cnc4cn(CC)nc4n3)c2)cc1C [Compound 513, (S)-N-(3-(1-((2-ethyl-2H-pyrazolo[3,4-b]pyrazin-6-yl)amino)ethyl)-4-methylphenyl)-6-(ethylamino)-5-methylnicotinamide]
≥ 1 | 0.3 to 1 | CCn1cc2ncc(N[C@@H](C)c3cccc(NC(=O)c4cnc5[nH]nc(C)c5c4)c3)nc2n1 [Compound 61, (S)-N-(3-(1-((2-ethyl-2H-pyrazolo[3,4-b]pyrazin-6-yl)amino)ethyl)phenyl)-3-methyl-1H-pyrazolo[3,4-b]pyridine-5-carboxamide]
< 0.3 | < 0.3 | Cc1cc(C(=O)Nc2cccc([C@H](C)Nc3cnc4cnn(C)c4n3)c2)cnc1C#N [Compound 127, (S)-6-cyano-5-methyl-N-(3-(1-((1-methyl-1H-pyrazolo[3,4-b]pyrazin-6-yl)amino)ethyl)phenyl)nicotinamide]
0.3 to 1 | < 0.3 | CCOc1ncc(C(=O)Nc2cccc([C@H](C)Nc3cnc4cn(CC)nc4n3)c2)s1 [Compound 362, (S)-2-ethoxy-N-(3-(1-((2-ethyl-2H-pyrazolo[3,4-b]pyrazin-6-yl)amino)ethyl)phenyl)thiazole-5-carboxamide]
< 0.3 | < 0.3 | Cc1cc(C(=O)Nc2cccc([C@H](C)Nc3cnc4cnn(C)c4n3)c2)cnc1C(F)F [Compound 190, (S)-6-(difluoromethyl)-5-methyl-N-(3-(1-((1-methyl-1H-pyrazolo[3,4-b]pyrazin-6-yl)amino)ethyl)phenyl) nicotinamide]
< 0.3 | < 0.3 | CCn1cc2ncc(N[C@@H](C)c3cccc(NC(=O)c4ccc(CN5CCOCC5)c(C)c4)c3)nc2n1 [Compound 403, (S)-N-(3-(1-((2-ethyl-2H-pyrazolo[3,4-b]pyrazin-6-yl)amino)ethyl)phenyl)-3-methyl-4-(morpholinomethyl) benzamide]
< 0.3 | < 0.3 | Cc1cncc(C(=O)Nc2cccc(CNc3cnc4ccccc4n3)c2)c1 [Compound 31, 5-methyl-N-(3-((quinoxalin-2-ylamino)methyl)phenyl) nicotinamide]
≥ 1 | 0.3 to 1 | CCn1cc2ncc(N[C@@H](C)c3cccc(NC(=O)c4cnc(NC5CCOCC5)c(C)c4)c3)nc2n1 [Compound 351, (S)-N-(3-(1-((2-ethyl-2H-pyrazolo[3,4-b]pyrazin-6-yl)amino)ethyl)phenyl)-5-methyl-6-((tetrahydro-2H-pyran-4-yl)amino)nicotinamide]
< 0.3 | < 0.3 | CCn1cc2ncc(N[C@@H](C)c3cccc(NC(=O)Cc4cc(C)cc(F)c4)c3)nc2n1 [Compound 639, (S)-N-(3-(1-((2-ethyl-2H-pyrazolo[3,4-b]pyrazin-6-yl)amino)ethyl)phenyl)-2-(3-fluoro-5-methylphenyl) acetamide]
< 0.3 | < 0.3 | CCn1cc2ncc(N[C@@H](C)c3cc(NC(=O)c4cnc(F)c(C)c4)ccc3C)nc2n1 [Compound 512, (S)-N-(3-(1-((2-ethyl-2H-pyrazolo[3,4-b]pyrazin-6-yl)amino)ethyl)-4-methylphenyl)-6-fluoro-5-methylnicotinamide]
0.3 to 1 | < 0.3 | Cc1cncc(C(=O)Nc2cccc([C@H](C)Nc3cnc4cc(F)c(F)cc4c3)c2)c1 [Compound 30, (S)-N-(3-(1-((6,7-difluoroquinolin-3-yl)amino)ethyl)phenyl)-5-methylnicotinamide]
< 0.3 | < 0.3 | CCn1cc2ncc(N[C@@H](C)c3cc(NC(=O)Cc4cccc(Cl)c4)ccc3F)nc2n1 [Compound 635, (S)-2-(3-chlorophenyl)-N-(3-(1-((2-ethyl-2H-pyrazolo[3,4-b]pyrazin-6-yl)amino)ethyl)-4-fluorophenyl)acetamide]
